Experiments:
[1] = system: Yap1 mRNA; test: Dose-dependent inhibition of human Yap1 in SNU-449 cells (Example 9, RTS36584); type: cell-based; details: free uptake; for % UTC (Yap1 mRNA): approximately 48 hours; for IC50: linear regression on a log/linear plot
How it was run: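 Read-out was Yap1 mRNA (primer-probe RTS36584) normalised to total RNA by RIBOGREEN, given as % of untreated cells, with IC50 fitted by linear regression of log/linear data. Oligonucleotides were dosed by free uptake to SNU-449 cells, 10,000/well, for ~48 h.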

[2] = Tolerability in Sprague-Dawley rats, plasma chemistry markers (Example 22); type: in vivo; details: male Sprague-Dawley rats, 50 mg/kg s.c. weekly for 6 weeks (7 doses), 48 hours after last dose
Experimental: Sprague-Dawley rats are a multipurpose model used for safety and efficacy evaluations. The rats were treated with Ionis modified oligonucleotides from the studies described in the Examples above and evaluated for changes in the levels of various plasma chemistry markers.

[3] = Tolerability in Sprague-Dawley rats, body and organ weights (Example 22); type: in vivo; details: male Sprague-Dawley rats, 50 mg/kg s.c. weekly for 6 weeks (7 doses); for Kidney weight / Liver weight / Spleen weight: end of study; for body weight: terminal, prior to necropsy
Experimental: Terminal body weight was measured prior to necropsy. Ionis oligonucleotides that caused any changes in organ weights outside the expected range for modified oligonucleotides were excluded from further studies.

[4] = system: SCC25 cells; test: Cell proliferation assay in SCC25 cells, CellTiter-Glo (Example 25); type: cell-based, human; details: free uptake, 144 hours
Experimental: Modified oligonucleotides described in the studies above were tested at various doses in squamous cell carcinoma cell SCC25. A control oligonucleotide 792169 (a 3-10-3 cET gapmer with a full phosphorothioate backbone, […], designated herein as SEQ ID No.: 2940; is not complementary to any known human gene) was also tested.
Cultured SCC25 cells at a density of 1,000 cells/well were treated using free uptake with modified oligonucleotides diluted to concentrations described in the tables below. After approximately 144 hours, cell proliferation was measured using the luminescent cell viability CellTiter-Glo® 2.0 Assay (Promega). Results are presented in the tables below as percent control of the amount of luminescence in samples treated with modified oligonucleotides relative to untreated control cells (% UTC).

[5] = system: Yap1 mRNA; test: Inhibition of human Yap1 mRNA in epidermoid carcinoma A-431 xenograft tumors (Example 27); type: in vivo; details: A-431 xenografts in NCr-Foxn1nu mice, 6-8 hours post final dose, relative to PBS
Experimental: An epidermoid carcinoma A-431 xenograft tumor model was used to evaluate activity of modified oligonucleotides targeted to human Yap1. Five million A-431 cells in 30% matrigel were implanted subcutaneously into the flanks of female NCr-Foxn1nu mice (from Taconic) at 4-6 weeks of age. When tumors reached an average volume of 40 mm^3, approximately two weeks post-implantation, groups of four mice each were administered at either 25 mg/kg or 50 mg/kg daily with modified oligonucleotides for […] (5 doses). Tumors were collected 6-8 hours post final dose and tested for Yap1 mRNA knockdown by RT-qPCR. Yap1 mRNA levels were measured as previously described using the Human Yap1 primer-probe set RTS4814. Yap1 mRNA levels were normalized to actin-beta content, as measured by primer probe set RTS5002. Results are presented in the tables below as percent control of the amount of Yap1 mRNA relative to PBS treated animals (% control).

[6] = system: Yap1 mRNA; test: Inhibition of human Yap1 mRNA in squamous cell carcinoma CAL27 xenograft tumors (Example 28); type: in vivo; details: CAL27 xenografts in NCr-Foxn1nu mice, relative to PBS treated
Experimental: A squamous cell carcinoma CAL27 xenograft tumor model was used to evaluate activity of modified oligonucleotides targeted to human Yap1. Five million CAL27 cells in 30% matrigel were implanted subcutaneously into the flanks of female CrTac:NCr-Foxn1nu mice (from Taconic) at 4-6 weeks of age. Groups of four mice each were administered with either 15 mg/kg or 30 mg/kg of modified oligonucleotides daily for five days after tumor size had reached ˜100 mm^3 (about 3 weeks post implantation). Tumors were collected and tested for Yap1 mRNA knockdown by RT-qPCR. Yap1 mRNA levels were measured as previously described using the Human Yap1 primer-probe set RTS4814. Yap1 mRNA levels were normalized to actin-beta content, as measured by primer probe set RTS5002. Results are presented in the tables below as percent control of the amount of Yap1 mRNA relative to PBS treated […].

[7] = Cynomolgus monkey tolerability, hematology (Example 34); type: in vivo, cynomolgus monkeys; details: for BAS / EOS / HCT / HGB / LUC / LYM / MCH / MCHC / MCV / MON / NEU / PLT / RBC / RCDW / Retic / WBC: cynomolgus monkey, in vivo, sc, 35 mg/kg; for MPV: cynomolgus monkeys, 35 mg/kg subcutaneously, day 44
Experimental: To evaluate any effect of Ionis oligonucleotides in cynomolgus monkeys on hematologic parameters, blood samples of approximately 0.5 mL of blood was collected from each of the available study animals on day 44. The samples were collected in tubes containing K2-EDTA. Samples were analyzed for red blood cell (RBC) count, Hemoglobin (HGB), Hematocrit (HCT), Mean corpuscular volume (MCV), mean corpuscular hemoglobin (MCH), mean corpuscular hemoglobin concentration (MCHC), RBC Distribution Width (RCDW), reticulocyte count (Retic), platelet count (PLT), mean platelet volume (MPV), white blood cells (WBC) count, individual white blood cell counts, such as that of monocytes (MON), neutrophils (NEU), lymphocytes (LYM), eosinophils (EOS), basophils (BAS), and large unstained cells (LUC) using an ADVIA2120i hematology analyzer (Siemens, USA).

[8] = rat, in vivo, sc, 50 mg/kg
Experimental: Male Sprague-Dawley rats were maintained on a 12-hour light/dark cycle and fed ad libitum with Purina normal rat chow. Groups of 4 Sprague-Dawley rats each were weekly injected subcutaneously with 50 mg/kg of Ionis oligonucleotide for 6 weeks (total 7 doses). Forty-eight hours after the last dose, the rats were euthanized; and organs, urine and plasma were harvested for further analysis.
To evaluate the effect of Ionis oligonucleotides on kidney function, urinary levels of total protein and creatinine were measured using an automated clinical chemistry analyzer (Hitachi Olympus AU400c, Melville, N.Y.).

[9] = cynomolgus monkey, in vivo, sc, 35 mg/kg

Substance	% UTC (Yap1 mRNA) ([1]; 31.3 nM) [% UTC]	% UTC (Yap1 mRNA) ([1]; 125.0 nM) [% UTC]	% UTC (Yap1 mRNA) ([1]; 500.0 nM) [% UTC]	% UTC (Yap1 mRNA) ([1]; 2000.00 nM) [% UTC]	IC50 [1] [nM]	cell proliferation (luminescence) % UTC ([4]; 0.04 μM) [% UTC]	cell proliferation (luminescence) % UTC ([4]; 0.2 μM) [% UTC]	cell proliferation (luminescence) % UTC ([4]; 1 μM) [% UTC]	cell proliferation (luminescence) % UTC ([4]; 5 μM) [% UTC]	Yap1 mRNA in tumors, % control ([5]; 25 mpk daily (5 doses)) [% control]	Yap1 mRNA in tumors, % control ([5]; 50 mpk daily (5 doses)) [% control]	Yap1 mRNA in tumors, % UTC ([6]; 15 mg/kg daily for five days) [% UTC]	Yap1 mRNA in tumors, % UTC ([6]; 30 mg/kg daily for five days) [% UTC]	BAS [7] [%]	EOS [7] [%]	HCT [7] [%]	HGB [7] [g/dL]	LUC [7] [%]	LYM [7] [%]	MCH [7] [pg]	also measured
1198728 (TATTAGAGTATGTGGC; modified gapmer, further chemistry not given here) [compound 1198728]	51	28	9	3	< 30	88	61	30	20	47	39	77	56	0.5	2.2	47	14	0.9	64	23	ALT [2]: 54 U/L; AST [2]: 71 U/L; BUN [2]: 22 mg/dL; TBIL [2]: 0.18 mg/dL; Kidney weight [3]: 2.9 g; Liver weight [3]: 15 g; Spleen weight [3]: 1.4 g; body weight [3]: 381 g; MCHC [7]: 29 g/dL; MCV [7]: 80 fL; MON [7]: 2.9%; NEU [7]: 29%; PLT [7]: 428 10^3/μL; RBC [7]: 5.9e+06 µL⁻¹; RCDW [7]: 12%; Retic [7]: 1.3%; WBC [7]: 10700 µL⁻¹; MPV [7]: 8.0 fL; URINE P/C ratio (total protein to creatinine ratio) [8]: 7; A/G ratio [9]: 1.3
1198605 (GTAATATTGCAATCTG; modified gapmer, further chemistry not given here) [compound 1198605]	57	27	7	1	30	77	39	23	13	32	30	65	48	0.4	0.8	46	13	0.5	51	22	ALT [2]: 46 U/L; AST [2]: 76 U/L; BUN [2]: 18 mg/dL; TBIL [2]: 0.33 mg/dL; Kidney weight [3]: 3.6 g; Liver weight [3]: 18 g; Spleen weight [3]: 2.1 g; body weight [3]: 372 g; MCHC [7]: 29 g/dL; MCV [7]: 75 fL; MON [7]: 2.8%; NEU [7]: 44%; PLT [7]: 385 10^3/μL; RBC [7]: 6.1e+06 µL⁻¹; RCDW [7]: 13%; Retic [7]: 1.1%; WBC [7]: 10500 µL⁻¹; MPV [7]: 8.1 fL; URINE P/C ratio (total protein to creatinine ratio) [8]: 28; A/G ratio [9]: 1.5
958499 (ATTAGAGTATGTGGCA; 3-10-3 cEt gapmer, further chemistry not given here) [compound 958499]	93	47	19	7	200	76	42	25	14	49	29	68	53	0.4	1.1	43	12	1.2	44	22	MCHC [7]: 29 g/dL; MCV [7]: 77 fL; MON [7]: 3.5%; NEU [7]: 49%; PLT [7]: 399 10^3/μL; RBC [7]: 5.6e+06 µL⁻¹; RCDW [7]: 12%; Retic [7]: 1.5%; WBC [7]: 12000 µL⁻¹; MPV [7]: 7.6 fL; A/G ratio [9]: 1.3

Source: patent US11214803B2, “Modulators of YAP1 expression” (Ionis Pharmaceuticals, Inc., priority 2019, dated 2022)
